Structures can show the parent of a compound that is named as a salt.
Tested on: diabetic rats exhibiting contrast-induced nephropathy
Test: Contrast-induced nephropathy (CIN) model in streptozotocin-diabetic rats, contrast agent iomeprol
Assay type: in vivo, Male Wistar rats
Experimental: Effect of Tetracyclic 1H-indeno[1,2-b]pyridine-2(5H)-one analogs on the prophylaxis of contrast induced nephropathy
Male Wistar rats (150-200 g; Harlan Nossanr) were housed in a controlled environment and provided with standard rodent chow and water.
After 12 h of fasting, the animals received a single 60 mg/kg intravenous (i.v.) injection of streptozotocin (Sigma, St. Louis, Mo.) in 10 mM sodium citrate buffer, pH 4.5 (see figure showing CIN model). Control non-diabetic animals were fasted and received citrate buffer alone. After 24 h, animals with blood glucose levels greater than 250 mg/dl were considered diabetic. All experiments were performed 10 days following the induction of diabetes. The diabetic state was evaluated daily by determination of the blood glucose levels. Upon the induction of the diabetic state the animals were presenting with a major risk factor pre-disposing the animals to CIN after the administration of contrast media.
10 days following the induction of diabetes the rats were anesthetized with 90 mg/kg ketamine i.m. and 10 mg/kg xylazine i.m. and were treated with the contrast agent iomeprol (10 mL/kg injected via the lateral tail vein) or with 0.9% normal saline. The contrast agent used was the low osmolar non-ionic monomer iomeprol (lomeron, 400 mgI mL−1; Bracco SpA, Milan, Italy) with an osmolality of 726±34 mosmol/kg H2O.
Upon completion of surgical procedures, the animals were randomly allocated to different groups.
At the indicated time point blood samples were collected via the lateral tail vein into S1/3 tubes containing serum gel. The samples were centrifuged (6000 r.p.m. for 3 min) to separate plasma. All plasma samples were analyzed for biochemical parameters within 24 hours after collection. Plasma urea, plasma and urine concentrations of creatinine were measured as indicators of impaired glomerular function. Plasma concentrations of NGAL (neutrophil gelatinase associated lipocalin) levels and urine αGST (alpha glutathione S-transferase)and NGAL levels were evaluated.
At postmortem, a […] section of kidney was removed and placed in formalin and processed through to wax. […] sections were cut and stained with hematoxylin and eosin. Histologic assessment of outer medulla damage was examined by an experienced morphologist, who was not aware of the sample identity. The criteria for injury/necrosis were the following: 0=normal histology; 1=minor edema, minor cell swelling; 2=haemorrhage, moderate edema, moderate cells vacuolization and swelling; 3=moderate haemorrhage, moderate edema, moderate cells vacuolization, swelling and chromatin alteration; 4=severe edema, severe cells vacuolization, swelling and chromatin alteration, presence of necrosis spot; 5=severe edema, severe cells vacuolization, swelling and chromatin alteration, severe necrosis.

Q: For `O=c1[nH]c2c(c3c1CCCC3)Cc1c(CN3CC[C@H](F)C3)cccc1-2` [Example 17, (S)-10-((3-fluoropyrrolidin-1-yl)methyl)-3,4,6,11-tetrahydro-1H-indeno[1,2-c]isoquinolin-5(2H)-one mesylate], which kidney histological scores (outer medulla damage score 0-5, FIG. 4) is on record?
A: reduced

Q: And the “level of plasma creatinine” value (relative to contrast agent alone, FIG. 1)?
A: reduces

Q: What about the “level of plasma NGAL” value (relative to contrast agent alone, FIG. 2) of the same compound?
A: reduces

Q: What about the “level of urine NGAL” value (relative to contrast agent alone, FIG. 3) of the same compound?
A: reduces

Q: And the “level of urine GST” value (relative to contrast agent alone, FIG. 5)?
A: reduces
